The source of these data is PubChem BioAssay AID1996.

In brackets after ≈: the same amount, converted by molar mass.

Usually solubility (kinetic) stands for the concentration staying in solution when a stock, usually in DMSO, is diluted into the medium.

The conditions of the data set: buffer; pH 7.4; 200.0 µM.
On to `O=C(COC(=O)c1ccc(O)cc1O)Nc1ccc(Cl)cn1`, for which the kinetic solubility came to 46.5 µg/mL (≈ 144 µM).

The compound `O=C(N/C(=C\c1ccco1)C(=O)N1CCCC1CO)c1ccccc1` (configuration not stated) came in with a kinetic solubility of more than 51.1 µg/mL. Then `CC(=O)Nc1cccc(C(=O)/C=C/c2ccc[nH]2)c1`, with more than 38.1 µg/mL; and `COCCNC(=O)Cn1nc(-c2ccccc2F)ccc1=O`, with more than 45.8 µg/mL; and `O=C(COC(=O)c1cc(Cl)ccc1Cl)NC1CCCC1`, with 23.8 µg/mL (≈ 75.3 µM). Then `CCN(CC)C(=O)n1c(Cc2ccccc2)nc2ccccc21`, with more than 46.1 µg/mL. As for `CCOc1ccc2[nH]cc(C(=O)NCc3ccc(F)cc3)c(=O)c2c1`, the kinetic solubility turned out to be 1.9 µg/mL (≈ 5.58 µM). Then `COCCn1c(N2CCCC2)nc2c1c(=O)[nH]c(=O)n2C`, with more than 44 µg/mL; and `Cc1ccccc1C(=O)OCc1cnc(Cl)s1`, with 1.4 µg/mL (≈ 5.23 µM); and `CC(C)NC(=O)NNc1c(Cl)cncc1Cl`, with more than 39.5 µg/mL. For `CCC(=O)c1ccc(OC(=O)N2CCOCC2)cc1`, the kinetic solubility is more than 39.5 µg/mL. Then `Br.CC(Cc1ccc(O)cc1)NCC(O)c1cc(O)cc(O)c1` (configuration not stated), with more than 57.6 µg/mL; and `CC1CCc2sc3ncnc(N4CCN(CCO)CC4)c3c2C1` (configuration not stated), with more than 49.9 µg/mL; and `COc1cc(C(=O)CSc2nccn2C)cc(OC)c1OC`, with more than 48.4 µg/mL. Then `O=C(O)CCC(=O)Nc1nc2nccc(-c3ccccc3)n2n1`, with more than 46.7 µg/mL; and `COc1ccc(CC(=O)Nc2cc(S(=O)(=O)N3CCOCC3)ccc2N2CCCC2)cc1OC`, with more than 73.4 µg/mL; and `Cc1ccc(/C=C/C(=O)OCC(=O)Nc2cccnc2Cl)o1`, with 11.8 µg/mL (≈ 36.8 µM). For `CCCCCCCC(=O)NC1=NC(=O)C(C)(C)S1` the value was 5 µg/mL (≈ 18.5 µM); for `CCOC(=O)C1=C(O)C(=O)N(C2CCCCC2)C1`, more than 38 µg/mL; for `CCOC(=O)Cn1c2ccc(C)cc2c2nc(C)sc21`, 38.3 µg/mL (≈ 133 µM). In turn, `COC(=O)c1ccccc1NC(=O)Nc1cc(C(C)(C)C)on1` returned a solubility (kinetic) of 16.1 µg/mL (≈ 50.7 µM). Then `O=[N+]([O-])c1sccc1CS(=O)(=O)c1ccccc1`, with 20.6 µg/mL (≈ 72.7 µM); and `Cn1c(O)c(C=Nc2ccc(Br)cc2)c(=O)n(C)c1=O`, with 1.2 µg/mL (≈ 3.55 µM); and `Fc1ccccc1NC(=S)N1CCOCC1`, with more than 36 µg/mL. Then `CCC(C)Nc1cc(C)c(C#N)c2nc3ccccc3n12` (configuration not stated), with 3.7 µg/mL (≈ 13.3 µM); and `CN(C)C(=O)c1cc(C(=O)c2ccc(F)cc2Cl)c[nH]1`, with more than 44.2 µg/mL.

Compound `CC1CN(C(=O)CS(=O)(=O)Cc2ccccc2)CC(C)O1` (configuration not stated) registered a kinetic solubility of more than 46.7 µg/mL. For `Cn1c(=S)[nH]c2scc(-c3cccs3)c2c1=O` the value was more than 42.1 µg/mL. Then `O=C(CN1C(=O)NC(Cc2c[nH]c3ccccc23)C1=O)NC1CC1` (configuration not stated), with more than 49 µg/mL. For `Cc1ccc(Nc2nc(-c3cccnc3)nc3ccccc23)cc1` the value was 0.6 µg/mL (≈ 1.92 µM); for `CN(CC(=O)Nc1ccc(F)cc1Cl)Cc1cccs1`, 14.6 µg/mL (≈ 46.7 µM).

In turn, `CC1(C)NC(=O)N(CC(=O)N2CCC(Cc3ccccc3)CC2)C1=O` gave a solubility (kinetic) of 50.1 µg/mL (≈ 146 µM).

`O=C(OCC(O)COc1ccccc1)c1ccc([N+](=O)[O-])cc1` (configuration not stated): the solubility (kinetic) amounted to 43.7 µg/mL (≈ 138 µM). For `CC(=O)NC(=S)Nc1ccc([N+](=O)[O-])cc1C` the value was 3.5 µg/mL (≈ 13.8 µM); for `CN(C)C(=O)CN1CCN(Cc2nc(CC3CC3)no2)CC1`, more than 46.1 µg/mL. Then `Cc1cc(C(=O)N2CCC(C(=O)O)CC2)c(C)o1`, with more than 37.7 µg/mL. Then `COc1ccc(Cl)cc1NC(=O)CN(C)C(=O)/C=C/c1ccco1`, with more than 52.3 µg/mL; and `COc1ccccc1NC(=O)C1CCCN(c2cnccn2)C1` (configuration not stated), with more than 46.9 µg/mL. As to `N#Cc1c(F)cccc1N1CCN(Cc2ccc3c(c2)OCO3)CC1`, the solubility (kinetic) stood at 14.6 µg/mL (≈ 43 µM).

In turn, `O=C(COC(=O)c1ccc[nH]c1=O)NCCC1=CCCCC1` registered a kinetic solubility of 41.1 µg/mL (≈ 135 µM). Then `CC(=O)c1c(C)nc(-c2cccc([N+](=O)[O-])c2)n1O`, with more than 39.2 µg/mL; and `CCc1cc2c3c(c1)C(C)CC(C)(C)N3C(=O)/C2=C1\SC(=O)NC1=O` (configuration not stated), with 1.1 µg/mL (≈ 3.09 µM); and `Fc1ccc(N2CCN(c3cnc4ccccc4n3)CC2)cc1`, with 1 µg/mL (≈ 3.24 µM). Then `O=C(Nc1cccc(Cl)c1)NC1CCS(=O)(=O)C1` (configuration not stated), with 36.4 µg/mL (≈ 126 µM).

The compound `Cc1cccc(NC(=O)CN2CCSc3ccccc32)c1` showed a solubility (kinetic) of 5.2 µg/mL (≈ 17.4 µM).

`CCOc1ccccc1NC(=O)Cn1c(=O)oc2ccccc21` registered a solubility (kinetic) of 25.2 µg/mL (≈ 80.7 µM).

Take `Cc1cc(NC(=O)CSCC(=O)Nc2cc(C(F)(F)F)ccc2N2CCCCC2)no1`: the solubility (kinetic) was found to be 7.6 µg/mL (≈ 16.6 µM).

For the compound `CN(CC(=O)Nc1ccccc1C(=O)NC1CC1)Cc1ccco1`, the solubility (kinetic) was more than 49.1 µg/mL. Then `O=C(O)C1C2CCC(C2)C1C(=O)N1CCCC1` (configuration not stated), with more than 35.6 µg/mL; and `C/C(=N/OC(=O)c1ccc(C)cc1)C(=O)c1ccc(Br)cc1`, with 33.9 µg/mL (≈ 94.1 µM); and `NC(=O)C1CC(=O)N(CCc2ccc(F)cc2)C1` (configuration not stated), with more than 37.5 µg/mL.

Compound `Cl.O[C@@H](c1cc(C(F)(F)F)nc2c(C(F)(F)F)cccc12)[C@H]1CCCCN1` had a solubility (kinetic) of more than 62.2 µg/mL.

Compound `Cc1ccccc1C(=O)Nc1c(C)[nH]c(=O)[nH]c1=O` gave a kinetic solubility of more than 38.9 µg/mL. Then `COc1ccccc1/C=C/C(=O)OCC(=O)c1cc(C)n(C)c1C`, with 7.9 µg/mL (≈ 24.1 µM).

Consider `c1ccc(-c2nc3nc4ccccc4nc3n2CC2CCCO2)cc1` (configuration not stated), for which the kinetic solubility is more than 49.6 µg/mL.

`CCc1nc(NC(=O)c2sc(C)nc2C)sc1C(=O)OC` displayed a kinetic solubility of more than 48.8 µg/mL. Then `CCOc1ccc(NC(=O)COc2ccc3c(c2)OCO3)cc1`, with 5.7 µg/mL (≈ 18.1 µM). Then `CC(=O)c1cc2c(cc1NS(=O)(=O)c1ccc(F)cc1)OCO2`, with less than 0.7 µg/mL; and `COC(=O)c1c(NC(=O)CCCC(=O)O)sc2c1CCCCC2`, with more than 50.9 µg/mL; and `CC(=O)N1CCN(S(=O)(=O)c2cccc(C(=O)NCc3ccc(F)cc3)c2)CC1`, with more than 62.9 µg/mL. For `Cc1cccc(C)c1OC(=O)CN1C(=O)c2ccccc2C1=O` the value was 0.9 µg/mL (≈ 2.91 µM); for `O=C(O)CC(SCC(=O)NC1CCCc2ccccc21)C(=O)O` (configuration not stated), more than 50.6 µg/mL; for `CN1CC(C(=O)c2ccc(Cl)cc2)C(c2ccccc2F)C1` (configuration not stated), more than 47.7 µg/mL. Take `CSc1ccccc1C(=O)N1CCCCC1`: the kinetic solubility is more than 35.3 µg/mL. For `CCC(C)[C@H](NC(=O)Nc1ccc(S(N)(=O)=O)cc1)C(=O)OC` (some centres not stated) the value was more than 51.5 µg/mL; for `O=C(NC1CCS(=O)(=O)C1)c1ccccc1Cl` (configuration not stated), more than 41.1 µg/mL; for `COCCn1c(C)cc(C(=O)COC(=O)c2ccc(S(=O)(=O)N(C)C)cc2)c1C`, 2.4 µg/mL (≈ 5.68 µM). For `C1CN(CCN2CCOCC2)CCN1` the value was 22.7 µg/mL (≈ 114 µM); for `O=C(CNC(=O)C1CCCC1)Nc1ccccc1Br`, more than 48.8 µg/mL; for `Cc1cnc(C(=O)Oc2c(C)ccc(C)c2C)cn1`, 38.2 µg/mL (≈ 149 µM). Then `Cc1ccccc1NC(=S)NNC(=O)c1ccco1`, with more than 41.3 µg/mL.

Turning to `CC(C)CC(=O)Nc1ccc(S(=O)(=O)Nc2nccs2)cc1`, the kinetic solubility is more than 50.9 µg/mL. Then `N#Cc1ccccc1OCC(=O)OCC(=O)c1c[nH]c2ccccc12`, with 6.4 µg/mL (≈ 19.1 µM); and `Cc1ccc(S(=O)(=O)N2CCOCC2)cc1C(=O)NCCc1ccc(Cl)cc1`, with 26 µg/mL (≈ 61.5 µM); and `Cc1ccc(C(=O)OCC(=O)NC2CCCCC2)o1`, with more than 39.8 µg/mL.

Compound `O=C(O)C1CCN(C(=O)c2cc(F)cc3c2OCOC3)CC1` had a solubility (kinetic) of more than 46.4 µg/mL. Then `Cc1ccc(N=CNc2ccc(C)cc2C)c(C)c1`, with 35.2 µg/mL (≈ 139 µM).

As for `Cc1c(C=O)c2ccccn2c1C(=O)c1ccc(Cl)c([N+](=O)[O-])c1`, the solubility (kinetic) was 1.6 µg/mL (≈ 4.67 µM). Then `O=C(COC(=O)c1c(F)cccc1Cl)NCC1CCCCC1`, with 40.9 µg/mL (≈ 125 µM); and `O=C(O)c1cc(O)ccc1NC(=O)C(c1ccccc1)c1ccccc1`, with more than 52.1 µg/mL.

Turning to `COc1ccc(NC(=O)CC(NC(C)c2ccccc2)C(=O)O)cc1` (configuration not stated), the solubility (kinetic) was found to be 44.2 µg/mL (≈ 129 µM). For `CS(=O)(=O)N1CCCC(C(=O)Nc2ccccc2)C1` (configuration not stated) the value was 42.2 µg/mL (≈ 149 µM); for `O=C(/C=C/c1ccccc1)Nc1ccc(NC(=O)c2cccs2)cc1`, less than 0.4 µg/mL.

`O=C(Nc1ccc(F)cc1)Nc1csc2ccccc12` had a kinetic solubility of 0.5 µg/mL (≈ 1.75 µM). For `O=C(O)c1ccc(NC(=O)c2ccco2)c(NC(=O)c2ccco2)c1` the value was more than 51 µg/mL. Compound `COc1ccc2[nH]c(C(=O)NCCCn3ccnc3)cc2c1` gave a solubility (kinetic) of more than 44.8 µg/mL. As to `N#CN/C(=N\S(=O)(=O)c1ccccc1)c1ccccc1`, the solubility (kinetic) was determined as 32.3 µg/mL (≈ 113 µM). For `COc1ccc(NC(=O)Cc2ccc(C)c(C)c2)cc1S(=O)(=O)N1CCCCC1` the value was 12.8 µg/mL (≈ 30.7 µM).

`CSc1sc(C(=O)N2CCc3ccccc32)cc1S(=O)(=O)C(C)C` had a kinetic solubility of less than 0.8 µg/mL.

Turning to `CCCCCCCc1c(O)nc(SCCN(C)C)[nH]c1=O.Cl`, the solubility (kinetic) was more than 52.5 µg/mL. For `Cc1ccc(-c2nc(NCCN(C)C)c3ccccc3n2)cc1` the value was more than 46 µg/mL; for `COc1ccc(C(=O)Nc2nc3ccc(OC)cc3s2)cc1`, 1.4 µg/mL (≈ 4.45 µM); for `O=C(NC(=S)NNC(=O)c1ccco1)c1ccccc1`, more than 43.4 µg/mL.

As for `O=C(Nc1ccc(Cn2ccnc2)cc1)c1cccc(C(F)(F)F)c1`, the kinetic solubility was found to be 1.6 µg/mL (≈ 4.63 µM). For `CC(C)[C@H](NS(=O)(=O)c1ccccc1)C(=O)OCC(=O)NC1CCCCC1` the value was more than 59.5 µg/mL; for `CN(CC(=O)Nc1ccc(F)cc1)CC(=O)NC1CCCCC1`, more than 48.2 µg/mL; for `O=C(COc1ccccc1)Nc1ccccc1F`, 32.7 µg/mL (≈ 133 µM).

`CCCC(=O)c1c[nH]c(C(=O)N2CCOCC2)c1` came in with a kinetic solubility of more than 37.5 µg/mL. Then `COc1ccc(CCc2nc(-c3cccs3)no2)cc1`, with 2.3 µg/mL (≈ 8.03 µM). For `O=[N+]([O-])c1cc(C(F)(F)F)cc([N+](=O)[O-])c1N1CCCNCC1` the value was 37.9 µg/mL (≈ 113 µM).

In turn, `Cc1cccc(N2C(=O)NC(=O)/C(=C\C=C\c3ccco3)C2=O)c1` returned a solubility (kinetic) of 39.2 µg/mL (≈ 122 µM). The solubility kinetic values of the last two compounds are within 1.5-fold of each other. Then `O=C(COc1ccccc1Cl)Nc1ccc(N2CCCC2)cc1`, with less than 0.4 µg/mL.
